≈ marks a conversion by molar mass, not a printed value.
Columns and labels:
[1] = test system: A. baumannii strain 649; format: cell-based, Acinetobacter baumannii
Description: A critical component to the systemic use of AMPs to treat bacterial infections is the extent of AMP binding to serum proteins. In addition, since only the unbound AMP is available to interact with the therapeutic target, the extent of serum binding can have significant effects on efficacy. […] This assay estimates the in vivo bioavailability of the AMPs. […] An increase in MIC in serum is attributed to inhibition of antimicrobial activity due to serum protein binding.

[2] = test system: human red blood cells; test: Hemolytic activity; format: cell-based; details: 18 h
Description: Hemoglobin release was determined spectrophotometrically at 570 nm. […] […] […] With the peptides used in this study the inventors used the HC30/MIC ratio value to calculate the therapeutic index.

## CC(=O)N[C@H](C)C(=O)N[C@H](CC(C)C)C(=O)N[C@H](CCCCN)C(=O)N[C@H](CO)C(=O)N[C@H](CC(C)C)C(=O)N[C@H](CC(C)C)C(=O)N[C@H](C)C(=O)N[C@@H](C(=O)N[C@H](CC(C)C)C(=O)N[C@H](CO)C(=O)N[C@H](CCCCN)C(=O)N[C@H](C)C(=O)N[C@H](CCCCN)C(=O)N[C@H](CCCCN)C(=O)N[C@H](CCCCN)C(=O)N[C@H](CCCCN)C(=O)N[C@H](CC(C)C)C(=O)N[C@H](CCCCN)C(=O)N[C@@H](C(=O)N[C@H](CC(C)C)C(=O)N[C@H](CC(C)C)C(=O)N[C@H](C)C(=O)N[C@H](C)C(=O)N[C@H](CC(C)C)C(=O)N[C@H](CO)C(=O)N[C@H](CCCCN)C(N)=O)[C@H](C)O)[C@H](C)O [Peptide D35]
[1]
  MIC, 25% human serum: 1.4 µM (≈ 3.93 µg/mL)
  MIC, No serum: 0.4 µM (≈ 1.12 µg/mL)
[2]
  Hemolytic activity HC30: 30 µM

## CC(=O)N[C@H](C)C(=O)N[C@H](CC(C)C)C(=O)N[C@H](CCCCN)C(=O)N[C@H](CO)C(=O)N[C@H](CC(C)C)C(=O)N[C@H](CC(C)C)C(=O)N[C@H](CCCCN)C(=O)N[C@@H](C(=O)N[C@H](CC(C)C)C(=O)N[C@H](CO)C(=O)N[C@H](C)C(=O)N[C@H](C)C(=O)N[C@H](C)C(=O)N[C@H](CCCCN)C(=O)N[C@H](CCCCN)C(=O)N[C@H](C)C(=O)N[C@H](CC(C)C)C(=O)N[C@H](C)C(=O)N[C@@H](C(=O)N[C@H](CC(C)C)C(=O)N[C@H](CC(C)C)C(=O)N[C@H](CCCCN)C(=O)N[C@H](C)C(=O)N[C@H](CC(C)C)C(=O)N[C@H](CO)C(=O)N[C@H](CCCCN)C(N)=O)[C@H](C)O)[C@H](C)O [Peptide D38]
[1]
  MIC, 25% human serum: >92.8 µM
  MIC, No serum: 0.7 µM (≈ 1.89 µg/mL)
[2]
  Hemolytic activity HC30: 2.8 µM

## CC(=O)N[C@H](C)C(=O)N[C@H](CC(C)C)C(=O)N[C@H](CCCCN)C(=O)N[C@H](CO)C(=O)N[C@H](CC(C)C)C(=O)N[C@H](CC(C)C)C(=O)N[C@H](C)C(=O)N[C@@H](C(=O)N[C@H](CC(C)C)C(=O)N[C@H](CO)C(=O)N[C@H](CCCCN)C(=O)N[C@H](C)C(=O)N[C@H](C)C(=O)N[C@H](CCCCN)C(=O)N[C@H](CCCCN)C(=O)N[C@H](C)C(=O)N[C@H](CC(C)C)C(=O)N[C@H](CCCCN)C(=O)N[C@@H](C(=O)N[C@H](CC(C)C)C(=O)N[C@H](CC(C)C)C(=O)N[C@H](C)C(=O)N[C@H](C)C(=O)N[C@H](CC(C)C)C(=O)N[C@H](CO)C(=O)N[C@H](CCCCN)C(N)=O)[C@H](C)O)[C@H](C)O [Peptide D39]
[1]
  MIC, 25% human serum: >92.8 µM
  MIC, No serum: 1.4 µM (≈ 3.77 µg/mL)
[2]
  Hemolytic activity HC30: 2.8 µM

## CC(=O)N[C@H](C)C(=O)N[C@H](CC(C)C)C(=O)N[C@H](C)C(=O)N[C@H](CO)C(=O)N[C@H](CC(C)C)C(=O)N[C@H](CC(C)C)C(=O)N[C@H](CCCCN)C(=O)N[C@@H](C(=O)N[C@H](CC(C)C)C(=O)N[C@H](CO)C(=O)N[C@H](CCCCN)C(=O)N[C@H](C)C(=O)N[C@H](CCCCN)C(=O)N[C@H](CCCCN)C(=O)N[C@H](CCCCN)C(=O)N[C@H](CCCCN)C(=O)N[C@H](CC(C)C)C(=O)N[C@H](CCCCN)C(=O)N[C@@H](C(=O)N[C@H](CC(C)C)C(=O)N[C@H](CC(C)C)C(=O)N[C@H](CCCCN)C(=O)N[C@H](C)C(=O)N[C@H](CC(C)C)C(=O)N[C@H](CO)C(=O)N[C@H](C)C(N)=O)[C@H](C)O)[C@H](C)O [Peptide D36]
[1]
  MIC, 25% human serum: 0.7 µM (≈ 1.97 µg/mL)
  MIC, No serum: 0.4 µM (≈ 1.12 µg/mL)
[2]
  Hemolytic activity HC30: 61 µM

## CC(=O)N[C@H](C)C(=O)N[C@H](CC(C)C)C(=O)N[C@H](CCCCN)C(=O)N[C@H](CO)C(=O)N[C@H](CC(C)C)C(=O)N[C@H](CC(C)C)C(=O)N[C@H](CCCCN)C(=O)N[C@@H](C(=O)N[C@H](CC(C)C)C(=O)N[C@H](CO)C(=O)N[C@H](C)C(=O)N[C@H](C)C(=O)N[C@H](CCCCN)C(=O)N[C@H](CCCCN)C(=O)N[C@H](CCCCN)C(=O)N[C@H](CCCCN)C(=O)N[C@H](CC(C)C)C(=O)N[C@H](C)C(=O)N[C@@H](C(=O)N[C@H](CC(C)C)C(=O)N[C@H](CC(C)C)C(=O)N[C@H](CCCCN)C(=O)N[C@H](C)C(=O)N[C@H](CC(C)C)C(=O)N[C@H](CO)C(=O)N[C@H](CCCCN)C(N)=O)[C@H](C)O)[C@H](C)O [Peptide D34]
[1]
  MIC, 25% human serum: 1.4 µM (≈ 3.93 µg/mL)
  MIC, No serum: 0.2 µM (≈ 0.562 µg/mL)
[2]
  Hemolytic activity HC30: 126 µM

## CC(=O)N[C@H](C)C(=O)N[C@H](CC(C)C)C(=O)N[C@H](C)C(=O)N[C@H](CO)C(=O)N[C@H](CC(C)C)C(=O)N[C@H](CC(C)C)C(=O)N[C@H](CCCCN)C(=O)N[C@@H](C(=O)N[C@H](CC(C)C)C(=O)N[C@H](CO)C(=O)N[C@H](CCCCN)C(=O)N[C@H](C)C(=O)N[C@H](C)C(=O)N[C@H](CCCCN)C(=O)N[C@H](CCCCN)C(=O)N[C@H](C)C(=O)N[C@H](CC(C)C)C(=O)N[C@H](CCCCN)C(=O)N[C@@H](C(=O)N[C@H](CC(C)C)C(=O)N[C@H](CC(C)C)C(=O)N[C@H](CCCCN)C(=O)N[C@H](C)C(=O)N[C@H](CC(C)C)C(=O)N[C@H](CO)C(=O)N[C@H](C)C(N)=O)[C@H](C)O)[C@H](C)O [Peptide D40]
[1]
  MIC, 25% human serum: >92.8 µM
  MIC, No serum: 2.9 µM (≈ 7.81 µg/mL)
[2]
  Hemolytic activity HC30: 2.8 µM

## CC(=O)N[C@H](C)C(=O)N[C@H](CC(C)C)C(=O)N[C@H](CCCCN)C(=O)N[C@H](CO)C(=O)N[C@H](CC(C)C)C(=O)N[C@H](CC(C)C)C(=O)N[C@H](CCCCN)C(=O)N[C@@H](C(=O)N[C@H](CC(C)C)C(=O)N[C@H](CO)C(=O)N[C@H](CCCCN)C(=O)N[C@H](C)C(=O)N[C@H](C)C(=O)N[C@H](C)C(=O)N[C@H](C)C(=O)N[C@H](C)C(=O)N[C@H](CC(C)C)C(=O)N[C@H](CCCCN)C(=O)N[C@@H](C(=O)N[C@H](CC(C)C)C(=O)N[C@H](CC(C)C)C(=O)N[C@H](CCCCN)C(=O)N[C@H](C)C(=O)N[C@H](CC(C)C)C(=O)N[C@H](CO)C(=O)N[C@H](CCCCN)C(N)=O)[C@H](C)O)[C@H](C)O [Peptide D37]
[1]
  MIC, 25% human serum: >92.8 µM
  MIC, No serum: 2.9 µM (≈ 7.81 µg/mL)
[2]
  Hemolytic activity HC30: 2.6 µM

## CC(=O)N[C@H](C)C(=O)N[C@H](CC(C)C)C(=O)N[C@H](CCCCN)C(=O)N[C@H](CO)C(=O)N[C@H](CC(C)C)C(=O)N[C@H](CC(C)C)C(=O)N[C@H](CCCCN)C(=O)N[C@@H](C(=O)N[C@H](CC(C)C)C(=O)N[C@H](CO)C(=O)N[C@H](CCCCN)C(=O)N[C@H](C)C(=O)N[C@H](CCCCN)C(=O)N[C@H](C)C(=O)N[C@H](C)C(=O)N[C@H](CCCCN)C(=O)N[C@H](CC(C)C)C(=O)N[C@H](CCCCN)C(=O)N[C@@H](C(=O)N[C@H](CC(C)C)C(=O)N[C@H](CC(C)C)C(=O)N[C@H](CCCCN)C(=O)N[C@H](C)C(=O)N[C@H](CC(C)C)C(=O)N[C@H](CO)C(=O)N[C@H](CCCCN)C(N)=O)[C@H](C)O)[C@H](C)O [Peptide D33]
[1]
  MIC, 25% human serum: 0.7 µM (≈ 1.97 µg/mL)
  MIC, No serum: 0.1 µM (≈ 0.281 µg/mL)
[2]
  Hemolytic activity HC30: 89 µM
